Experimental data reported in US9695200B2, “Heterocyclic ITK inhibitors for treating inflammation and cancer” (Confluence Life Sciences, Inc., priority 2015, dated 2017).

tested on: phospho-PLCγ1 in Jurkat cells; experiment: ITK target modulation PLC-γ assay (phospho-PLCγ1, αCD3-stimulated Jurkat cells); type: cell-based, human; conditions: Homo sapiens, 1 hour compound incubation, αCD3 Dynabeads stimulation 8 minutes, MSD phospho-PLCγ1, read-out: PLC-γ Inhibition IC50
Protocol: Jurkat cells, an immortalized human T-lymphocyte cell line, were maintained in RPMI media, 10% FBS, 1% pen/strep/glutamine (growth media). Cells were plated in growth media plus 50 μM β-mercaptoethanol at 400,000 cells per well of a 96 well plate.
Compounds were serially diluted into DMSO, and then into media to concentrations 10× that of the final assay concentration. Compounds were then added to the cells with the final assay DMSO concentration being 0.1%. Cells were incubated for 1 hour at 37° C.
Following compound incubation, αCD3 Dynabeads were added at 1 bead/cell to each assay well and incubated at 37° C. for 7 minutes. Unstimulated control wells received media only. The plate was then placed on a 96-well magnetic plate for an additional 60 seconds (total assay stimulation time equals 8 minutes). The plate was then dumped and gently patted dry on a paper towel. 50 μl of complete Meso Scale Discovery (MSD) Lysis buffer was then added to each well. Samples were assayed for phospho-PLCγ1 using Meso Scale Discovery technology.
The assay stimulation time has been optimized for detection of Itk kinase-mediated phosphorylation of PLCγ1. The timing and detection reagents for this assay could be adjusted to capture phosphorylation events upstream (e.g., phospho-ZAP70) or downstream of the Itk/PLCγ1 node, provided the appropriate phospho-specific antibodies are available for building of an MSD assay.

`C=CC(=O)NC1CN(c2cnc3[nH]cc(-c4ccccc4)c3c2)C1` [Example 1, N-(1-(3-Phenyl-1H-pyrrolo[2,3-b]pyridin-5-yl)azetidin-3-yl)acrylamide] and `C=CC(=O)NC1CN(c2cnc3[nH]cc(-c4ccnc(C)c4)c3c2)C1` [Example 4, N-(1-(3-(2-Methylpyridin-4-yl)-1H-pyrrolo[2,3-b]pyridin-5-yl)azetidin-3-yl)acrylamide] cannot be ordered by IC50: greater than 5000 nM for the first, greater than 5000 nM for the second.

First: C=CC(=O)Nc1cccc(-c2cnc3[nH]cc(-c4ccnc(OC)c4)c3c2)c1 [Example 6, N-(3-(3-(2-Methoxypyridin-4-yl)-1H-pyrrolo[2,3-b]pyridin-5-yl)phenyl)acrylamide]
Second: COC/C=C/C(=O)Nc1cccc(-c2cnc3[nH]cc(-c4ccnc(OC)c4)c3c2)c1 [Example 65, (E)-4-methoxy-N-(3-(3-(2-methoxypyridin-4-yl)-1H-pyrrolo[2,3-b]pyridin-5-yl)phenyl)but-2-enamide]
The IC50 of the first is lower: less than 1000 nM for the first, greater than 5000 nM for the second.

First: N#C/C(=C\c1cccc(-c2cnc3[nH]cc(-c4ccncc4)c3c2)c1)C(N)=O [Example 8, (E)-2-Cyano-3-(3-(3-(pyridin-4-yl)-1H-pyrrolo[2,3-b]pyridin-5-yl)phenyl)acrylamide]
Second: N#C/C(=C\c1cccc(-c2cnc3[nH]cc(-c4ccncn4)c3c2)c1)C(N)=O [Example 75, (E)-2-cyano-3-(3-(3-(pyrimidin-4-yl)-1H-pyrrolo[2,3-b]pyridin-5-yl)phenyl)acryl-amide]
The IC50 of the first is lower: 1000 to 5000 nM for the first, greater than 5000 nM for the second.

First: C=CC(=O)Nc1cc(-c2cnc3[nH]cc(-c4ccnc(F)c4)c3c2)cc(C(F)(F)F)c1 [Example 61, N-(3-(3-(2-fluoropyridin-4-yl)-1H-pyrrolo[2,3-b]pyridin-5-yl)-5-(trifluoromethyl)phenyl)acryl-amide]
Second: C=CC(=O)Nc1cc(-c2cnc3[nH]cc(-c4ccnc(OC)c4)c3c2)cc(C(O)(CC)CC)c1 [Example 83, N-(3-(3-hydroxypentan-3-yl)-5-(3-(2-methoxypyridin-4-yl)-1H-pyrrolo[2,3-b]pyridin-5-yl)phenyl)acryl-amide]
The IC50 of the first is lower: less than 1000 nM for the first, 1000 to 5000 nM for the second. The first is the more potent here.

First: C=CC(=O)Nc1cccc(-c2cnc3[nH]cc(-c4ccnc5[nH]ccc45)c3c2)c1 [Example 62, N-(3-(1H,1′H-[3,4′-bipyrrolo[2,3-b]pyridin]-5-yl)phenyl)acryl-amide]
Second: C=CC(=O)Nc1cccc(-c2cnc3[nH]cc(-c4cccc5[nH]ccc45)c3c2)c1 [Example 71, N-(3-(3-(1H-indol-4-yl)-1H-pyrrolo[2,3-b]pyridin-5-yl)phenyl)acryl-amide]
The IC50 of the first is lower: less than 1000 nM for the first, 1000 to 5000 nM for the second. The first is the more potent here.

First: N#C/C(=C\c1cccc(-c2cnc3[nH]cc(-c4ccc(F)nc4)c3c2)c1)C(N)=O [Example 63, (E)-2-cyano-3-(3-(3-(6-fluoropyridin-3-yl)-1H-pyrrolo[2,3-b]pyridin-5-yl)phenyl)acryl-amide]
Second: C=CC(=O)Nc1cccc(-c2cnc3[nH]cc(-c4cccc(C#N)c4)c3c2)c1 [Example 92, N-(3-(3-(3-cyanophenyl)-1H-pyrrolo[2,3-b]pyridin-5-yl)phenyl)acryl-amide]
The IC50 of the first is higher: greater than 5000 nM for the first, 1000 to 5000 nM for the second.

First: C=CC(=O)Nc1cccc(-c2cnc3[nH]cc(-c4ccnc5ccccc45)c3c2)c1 [Example 64, N-(3-(3-(quinolin-4-yl)-1H-pyrrolo[2,3-b]pyridin-5-yl)phenyl)acryl-amide]
Second: C=CC(=O)Nc1cccc(-c2cnc3[nH]cc(-c4cccc5occc45)c3c2)c1 [Example 82, N-(3-(3-(benzofuran-4-yl)-1H-pyrrolo[2,3-b]pyridin-5-yl)phenyl)acryl-amide]
The IC50 of the first is lower: 1000 to 5000 nM for the first, greater than 5000 nM for the second.

First: C=CC(=O)Nc1cccc(-c2cnc3[nH]cc(-c4ccc(=O)n(CC(C)(C)O)c4)c3c2)c1 [Example 66, N-(3-(3-(1-(2-hydroxy-2-methylpropyl)-6-oxo-1,6-dihydropyridin-3-yl)-1H-pyrrolo[2,3-b]pyridin-5-yl)phenyl)acryl-amide]
Second: C=CC(=O)Nc1cccc(-c2cnc3[nH]cc(-c4ccnc(NC)n4)c3c2)c1 [Example 91, N-(3-(3-(2-(methylamino)pyrimidin-4-yl)-1H-pyrrolo[2,3-b]pyridin-5-yl)phenyl)acryl-amide]
The IC50 of the first is higher: 1000 to 5000 nM for the first, less than 1000 nM for the second. The second is the more potent here.

Going from `C=C(C)C(=O)Nc1cc(-c2cnc3[nH]cc(-c4ccnc(OC)c4)c3c2)cc(-c2cnn(C)c2)n1` [Example 70, N-(4-(3-(2-methoxypyridin-4-yl)-1H-pyrrolo[2,3-b]pyridin-5-yl)-6-(1-methyl-1H-pyrazol-4-yl)pyridin-2-yl)methacryl-amide] to `C=CC(=O)Nc1cc(-c2cnc3[nH]cc(-c4ccnc(OC)c4)c3c2)cc(-c2cnn(C)c2)c1` [Example 80, N-(3-(3-(2-methoxypyridin-4-yl)-1H-pyrrolo[2,3-b]pyridin-5-yl)-5-(1-methyl-1H-pyrazol-4-yl)phenyl)acryl-amide], the IC50 falls from greater than 5000 nM to less than 1000 nM.

First: C=CC(=O)Nc1cncc(-c2cnc3[nH]cc(-c4cn(C)c(=O)c5[nH]ccc45)c3c2)c1 [Example 73, N-(5-(3-(6-methyl-7-oxo-6,7-dihydro-1H-pyrrolo[2,3-c]pyridin-4-yl)-1H-pyrrolo[2,3-b]pyridin-5-yl)pyridin-3-yl)acrylamide]
Second: C=CC(=O)Nc1cccc(-c2cnc3[nH]cc(-c4cn(CC5CC5)c(=O)c5[nH]ccc45)c3c2)c1 [Example 88, N-(3-(3-(6-(cyclopropyl-methyl)-7-oxo-6,7-dihydro-1H-pyrrolo[2,3-c]pyridin-4-yl)-1H-pyrrolo[2,3-b]pyridin-5-yl)phenyl)acryl-amide]
The IC50 of the first is higher: greater than 5000 nM for the first, 1000 to 5000 nM for the second. The second is the more potent here.

`C=CC(=O)Nc1cccc(-c2cnc3[nH]cc(-c4cncc5[nH]ccc45)c3c2)c1` [Example 77, N-(3-(3-(1H-pyrrolo[2,3-c]pyridin-4-yl)-1H-pyrrolo[2,3-b]pyridin-5-yl)phenyl)acryl-amide] and `C=CC(=O)Nc1cccc(-c2cnc3[nH]cc(-c4cc(OC)ncc4C)c3c2)c1` [Example 79, N-(3-(3-(2-methoxy-5-methylpyridin-4-yl)-1H-pyrrolo[2,3-b]pyridin-5-yl)phenyl)acryl-amide] cannot be ordered by IC50: greater than 5000 nM for the first, greater than 5000 nM for the second.

molecular target: ITK (Homo sapiens (Human), UniProt Q08881); experiment: ITK inhibitor binding potency (LanthaScreen competitive binding assay); conditions: TR-FRET tracer-236 displacement, 10 nM ITK; pre-incubation condition not given; read-out: ITK Inhibition IC50
Description: The ability of candidate compounds to interact with ITK is quantitated by a competitive binding assay using the LanthaScreen technology developed by Life Technologies. This assay is based on the binding of a proprietary, Alexa Fluor® 647-labeled, ATP-competitive kinase inhibitor (kinase tracer-236) to the ITK expression construct in the presence of a Europium-conjugated antibody, resulting in a FRET (fluorescence resonance energy transfer) signal. Displacement of the kinase tracer by compound results in a lower emission ratio upon excitation of the Europium chelate. Candidate compounds are designed as potential irreversible inhibitors of ITK, capable of ligating to an active site cysteine residue resulting in time dependent covalent binding. The time dependent nature of irreversible inhibition is investigated by performing the binding assay with and without a pre-incubation of compound and ITK. […] The inhibitory potency of candidate compounds is measured in 20 mM HEPES pH 7.5, 10 mM MgCl2, 0.01% BSA, 0.0005% Tween-20, and 2% DMSO in the presence of 10 nM ITK, 2 nM Eu-anti-GST antibody, and 50 nM kinase tracer-236 using a 384-well plate format. Background signal is defined in the absence of ITK and uninhibited signal is defined in the presence of vehicle (2% DMSO) alone. Compounds were evaluated in an 11 point dose-response ranging from 20 uM to 0.34 nM. The binding assays are performed under two preincubation conditions to evaluate time dependence of inhibition. For the pre-incubation assay, ITK and Eu-anti-GST antibody are pre-incubated with compound or vehicle for two hours prior to the addition of kinase tracer. The non-preincubated assay is run under conditions where ITK and Eu-anti-GST antibody are added to a mixture of compound and kinase tracer. IC50 values of compounds are determined using a 4 parameter logistical fit of emission ratio as a function of the concentration of compound.

Chain of ITK (Q08881 whole entry): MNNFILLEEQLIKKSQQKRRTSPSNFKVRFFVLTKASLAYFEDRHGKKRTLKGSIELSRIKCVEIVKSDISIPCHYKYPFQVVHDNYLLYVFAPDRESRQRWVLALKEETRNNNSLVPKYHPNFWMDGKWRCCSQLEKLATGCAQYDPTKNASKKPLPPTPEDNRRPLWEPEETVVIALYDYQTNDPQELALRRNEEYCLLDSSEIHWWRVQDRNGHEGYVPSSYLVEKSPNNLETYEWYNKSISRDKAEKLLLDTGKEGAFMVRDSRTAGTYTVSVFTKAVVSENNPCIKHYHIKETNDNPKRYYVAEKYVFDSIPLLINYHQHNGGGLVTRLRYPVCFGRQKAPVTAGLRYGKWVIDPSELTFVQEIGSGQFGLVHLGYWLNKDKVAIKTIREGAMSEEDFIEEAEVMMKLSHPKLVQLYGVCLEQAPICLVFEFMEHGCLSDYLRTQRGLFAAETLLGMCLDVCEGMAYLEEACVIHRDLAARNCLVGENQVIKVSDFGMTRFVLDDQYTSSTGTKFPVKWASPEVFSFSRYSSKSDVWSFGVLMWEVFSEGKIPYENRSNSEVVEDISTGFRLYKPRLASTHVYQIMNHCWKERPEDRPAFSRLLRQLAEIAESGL

`C=CC(=O)NC1CN(c2cnc3[nH]cc(-c4ccccc4)c3c2)C1` [Example 1, N-(1-(3-Phenyl-1H-pyrrolo[2,3-b]pyridin-5-yl)azetidin-3-yl)acrylamide] and `C=CC(=O)NC1CN(c2cnc3[nH]cc(-c4ccnc(C)c4)c3c2)C1` [Example 4, N-(1-(3-(2-Methylpyridin-4-yl)-1H-pyrrolo[2,3-b]pyridin-5-yl)azetidin-3-yl)acrylamide] cannot be ordered by IC50: no more than 1000 nM for the first, no more than 1000 nM for the second.

`C=CC(=O)NC1CN(c2cnc3[nH]cc(-c4ccnc(OC)c4)c3c2)C1` [Example 2, N-(1-(3-(2-Methoxypyridin-4-yl)-1H-pyrrolo[2,3-b]pyridin-5-yl)azetidin-3-yl)acrylamide] and `C=CC(=O)NC1CN(c2cnc3[nH]cc(-c4ccc(OC)nc4)c3c2)C1` [Example 3, N-(1-(3-(6-Methoxypyridin-3-yl)-1H-pyrrolo[2,3-b]pyridin-5-yl)azetidin-3-yl)acrylamide] cannot be ordered by IC50: no more than 1000 nM for the first, no more than 1000 nM for the second.

`C=CC(=O)Nc1cccc(-c2cnc3[nH]cc(-c4ccnc(OC)c4)c3c2)c1` [Example 6, N-(3-(3-(2-Methoxypyridin-4-yl)-1H-pyrrolo[2,3-b]pyridin-5-yl)phenyl)acrylamide] and `C=CC(=O)Nc1cccc(-c2cnc3[nH]cc(-c4ccncc4)c3c2)c1` [Example 7, N-(3-(3-(pyridin-4-yl)-1H-pyrrolo[2,3-b]pyridin-5-yl)phenyl)acrylamide] cannot be ordered by IC50: no more than 1000 nM for the first, greater than 1000 nM for the second.

`N#C/C(=C\c1cccc(-c2cnc3[nH]cc(-c4ccncc4)c3c2)c1)C(N)=O` [Example 8, (E)-2-Cyano-3-(3-(3-(pyridin-4-yl)-1H-pyrrolo[2,3-b]pyridin-5-yl)phenyl)acrylamide] and `C=CC(=O)Nc1cncc(-c2cnc3[nH]cc(-c4ccncc4)c3c2)c1` [Example 16, N-(5-(3-(pyridin-4-yl)-1H-pyrrolo[2,3-b]pyridin-5-yl)pyridin-3-yl)acrylamide] cannot be ordered by IC50: no more than 1000 nM for the first, no more than 1000 nM for the second.

`N#CN[C@H]1CCN(c2cnc3[nH]cc(-c4ccncc4)c3c2)C1` [Example 18, (S)-N-(1-(3-(pyridin-4-yl)-1H-pyrrolo[2,3-b]pyridin-5-yl)pyrrolidin-3-yl)cyanamide] and `C=CC(=O)Nc1cc(-c2cnc3[nH]cc(-c4ccnc(OC)c4)c3c2)cc(OC)n1` [Example 40, N-(6-methoxy-4-(3-(2-methoxypyridin-4-yl)-1H-pyrrolo[2,3-b]pyridin-5-yl)pyridin-2-yl)acrylamide] cannot be ordered by IC50: no more than 1000 nM for the first, no more than 1000 nM for the second.

Work on `C=CC(=O)Nc1cncc(-c2cnc3[nH]cc(-c4ccnc(F)c4)c3c2)c1` [Example 27, N-(5-(3-(2-fluoropyridin-4-yl)-1H-pyrrolo[2,3-b]pyridin-5-yl)pyridin-3-yl)acrylamide] yielded an IC50 of no more than 1000 nM.
